From patent publication US7632827B2, “Anti-cancer phosphine containing [AuIIIm(CNC)mL]n+ complexes and derivatives thereof and methods for treating cancer using such compositions” (The University of Hong Kong, priority 2006, dated 2009)

Legend:
[1] = tested on: SUNE1 (human nasopharyngeal carcinoma, cisplatin sensitive); test: MTT cytotoxicity, SUNE1; assay type: cell-based; conditions: 72 h
Method: (§1) The cytotoxicities of the gold(III) compounds toward several human cancer cell lines including nasopharyngeal carcinoma (SUNE1, and its cisplatin variant CNE1), hepatocellular carcinoma (HepG2), and cervical epitheloid carcinoma (HeLa) were determined using a well-established MTT assay.

[2] = tested on: CNE1 (human nasopharyngeal carcinoma, cisplatin resistance); test: MTT cytotoxicity, CNE1; assay type: cell-based; conditions: 72 h
Method: as §1

[3] = tested on: HeLa (human cervical epithelioid carcinoma); test: MTT cytotoxicity, HeLa; assay type: cell-based; conditions: 72 h
Method: as §1

[4] = tested on: HepG2 (human hepatocellular carcinoma); test: MTT cytotoxicity, HepG2; assay type: cell-based; conditions: 72 h
Method: as §1

[5] = tested on: several human cancer cell lines; test: Cytotoxic activities against several cancer cell lines (MTT); assay type: cell-based
Method: as §1
A number of structurally distinct gold(III)-phosphino compounds (3a-g) were synthesized and assayed for cytotoxic activities against several cancer cell lines (see Table 1). […] Whereas, shortening (n=1 or 2) or lengthening (n=4, 5 or 6) the hydrocarbon linker reduced the cytotoxicity, with IC50 values increasing by at least an order of magnitude.

100-base pair DNA ladder = test: Gel mobility shift assay (DNA intercalation); assay type: binding; conditions: 1.5% agarose gel, DNA 50 μM bp-1
Method: A gel mobility shift assay was employed to determine the intercalating property 3d [E. C. Long, J. K. Barton, Acc. Chem. Res. 1990, 23, 271] to evaluate the effect 3d, had upon the DNA binding affinities. A 100-base pair DNA ladder treated with 3d, or ethidium bromide (EB, DNA intercalator) as well as a control were resolved by agarose gel electrophoresis. Briefly, gel electrophoresis of 100-bp DNA ladder on a 1.5% (w/v) agarose gel was performed showing the mobility of DNA (50 μM bp-1) in the absence or presence of ethidium bromide (EB), or compound 3d. […] The bound DNA would have lower mobility compared to that of the free DNA.

[6] = Solution stability (UV-vis, NMR); assay type: physicochemical; conditions: 24 h
SUNE1 cells = test: Cell cycle analysis by flow cytometry (propidium iodide); assay type: cell-based, human; conditions: 24- or 48-h incubation
Method: To find out whether cellular DNA is a major target of the gold(III) compounds, we studied the cell cycle profiles of 3d-treated cancer cells. Cell cycle analysis was performed by assessing the DNA content of cells stained with propidium iodide using flow cytometry. This enables quantification of the total cellular populations in the different phases of the cell cycle (G0/G1, S and G2/M). […] Compound 3d appears to affect its cytotoxicity via some alternative mechanistic pathways.

cancers = test: Potency against cancers compared with cis-platin
nude mice = test: In vivo toxicity studies in nude mice
[7] = Cyclic voltammetry in DMF; assay type: physicochemical; conditions: comparison value
Excerpt: The electrochemical properties of the gold(III) compounds in DMF were studied by cyclic voltammetry. As compared to KAuCl4 [E°gold(III)→gold(I)=−0.4 V], the substantially more cathodic potentials of −1.43 to −1.83 V vs Cp2Fe^+/0 required for the gold(III) reduction in all the gold(III) compounds is consistent with stabilization of gold(III) by the dianionic CNC ligand.

SMILES | IC50 [1] | IC50 [2] | IC50 ratio (CNE1/SUNE1), resistance factor [2] | IC50 [3] | IC50 [4] | Relative cytotoxicity among metal-free and metallated 1,2-bis(diphenylphosphino)Cn compounds [5] | DNA intercalation (tailing effect in gel) (100-base pair DNA ladder) | Stability on standing in DMSO or TBS (UV-vis, 31P, 1H NMR) [6] | Effect on cell cycle (SUNE1 cells) | potency against cancers relative to cis-platin (cancers) | toxicity to nude mice (nude mice; concentrations 20-fold higher than the effective dose) | DNA mutation upon usage (nude mice; mouse, in vivo) | E° gold(III)→gold(I) [7]
c1ccc([P+](c2ccccc2)(c2ccccc2)[Au-]23[c]4ccccc4-c4cccc([n+]42)-c2cccc[c]23)cc1 [3a] | 17 ± 2 µM | 11 ± 2 µM | 0.65 | – | – | – | – | – | – | – | – | – | –
O=S(=O)([O-])C(F)(F)F.O=S(=O)([O-])C(F)(F)F.O=S(=O)([O-])C(F)(F)F.c1ccc([P+](CC[P+](c2ccccc2)(c2ccccc2)[Au-]23[c]4ccccc4-c4cccc([n+]42)-c2cccc[c]23)(CC[P+](c2ccccc2)(c2ccccc2)[Au-]23[c]4ccccc4-c4cccc([n+]42)-c2cccc[c]23)[Au-]23[c]4ccccc4-c4cccc([n+]42)-c2cccc[c]23)cc1 [3h, [Au3(CNC)3(μ-dpep)](CF3SO3)3] | 0.26 ± 0.03 µM | 0.4 ± 0.05 µM | 1.5 | 0.93 ± 0.09 µM | 3.8 ± 0.6 µM | – | – | – | – | – | – | – | –
O=S(=O)([O-])C(F)(F)F.O=S(=O)([O-])C(F)(F)F.c1ccc([P+](CCCCCC[P+](c2ccccc2)(c2ccccc2)[Au-]23[c]4ccccc4-c4cccc([n+]42)-c2cccc[c]23)(c2ccccc2)[Au-]23[c]4ccccc4-c4cccc([n+]42)-c2cccc[c]23)cc1 [3g, [Au2(CNC)2(μ-dpph)](CF3SO3)2] | 4.3 ± 0.9 µM | 3.2 ± 0.5 µM | 0.74 | 3.2 ± 0.4 µM | – | – | – | – | – | – | – | – | –
[Cl-].[Cl][Pt-2]12[n+]3ccccc3-c3cccc([n+]31)-c1cccc[n+]12 [[Pt(terpy)Cl]Cl, reference compound] | 11 ± 3 µM | 13 ± 2 µM | 1.2 | 14 ± 2 µM | 23 ± 3 µM | – | – | – | – | – | – | – | –
O=S(=O)([O-])C(F)(F)F.O=S(=O)([O-])C(F)(F)F.c1ccc([P+](CCC[P+](c2ccccc2)(c2ccccc2)[Au-]23[c]4ccccc4-c4cccc([n+]42)-c2cccc[c]23)(c2ccccc2)[Au-]23[c]4ccccc4-c4cccc([n+]42)-c2cccc[c]23)cc1 [compound 3d, [Au2(CNC)2(μ-dppp)](CF3SO3)2] | 0.055 µM | 0.091 µM | 1.7 | 0.043 µM | 0.21 ± 0.09 µM | most cytotoxic | does not bind to DNA by intercalation | no UV-vis, ^31P or ^1H NMR spectral changes | did not significantly affect the cell cycle | about 200 times | non-toxic | does not cause DNA mutation | –
O=S(=O)([O-])C(F)(F)F.O=S(=O)([O-])C(F)(F)F.c1ccc([P+](CCCC[P+](c2ccccc2)(c2ccccc2)[Au-]23[c]4ccccc4-c4cccc([n+]42)-c2cccc[c]23)(c2ccccc2)[Au-]23[c]4ccccc4-c4cccc([n+]42)-c2cccc[c]23)cc1 [3e, [Au2(CNC)2(μ-dppb)](CF3SO3)2] | 1.5 ± 0.2 µM | 2.2 ± 0.3 µM | 1.5 | 2.4 ± 0.2 µM | – | – | – | – | – | – | – | – | –
[Cl][Au-]([Cl])([Cl])[Cl].[K+] [KAuCl4] | – | – | – | – | – | – | – | – | – | – | – | – | −0.4 V
N.N.[Cl][Pt][Cl] [cisplatin, reference compound] | 1 ± 0.1 µM | 3.3 ± 0.5 µM | 3.3 | 11 ± 1 µM | 1.6 ± 0.2 µM | – | – | – | – | – | – | – | –
O=S(=O)([O-])C(F)(F)F.O=S(=O)([O-])C(F)(F)F.c1ccc([P+](CCCCC[P+](c2ccccc2)(c2ccccc2)[Au-]23[c]4ccccc4-c4cccc([n+]42)-c2cccc[c]23)(c2ccccc2)[Au-]23[c]4ccccc4-c4cccc([n+]42)-c2cccc[c]23)cc1 [3f, [Au2(CNC)2(μ-dpppe)](CF3SO3)2] | 1.6 ± 0.3 µM | 2.5 ± 0.3 µM | 1.6 | 1.5 ± 0.3 µM | – | – | – | – | – | – | – | – | –
